# Tests used:
# AKT = AKT activation: Phospho-AKT (Ser473) antibody staining in reporter cells; assay type: cell-based; conditions: Homo sapiens, U2OS, 0.5 h, U2OS GFP-FoxO3a H212R cells, serum starved overnight, compound 30 minutes; total cellular intensity of Phospho-AKT (Ser473) staining; DMSO control 0%
# Method: (§1) Phosphorylation of AKT on S473 and FoxO3a nuclear to cytoplasmic translocation were used as readouts of PI3K/Akt/mTOR pathway activation downstream of growth factor signaling.
# (§2) Reporter cell line. U2OS GFP-FoxO3a H212R reporter cell line was established by transducing U2OS cells with the retroviral plasmid pLEGFP-C1 containing FoxO3a H212R transgene and selecting for G418 resistant clones.
# (§3) Reporter assay. U2OS GFP-FoxO3a H212R cells were plated in 384-well plates at 4000 cells per well in 30 microliters of McCoy's 5 A medium containing 10% FBS. On day 1 the cells were washed with serum free medium and serum starved overnight. On day 2 the cells were treated with different doses of the compounds for 30 minutes, fixed with 4% Paraformaldehyde for 1 hour and stained with Phospho-AKT (Ser473) antibody (Cell Signaling Technology, catalog #4060) overnight at 4 degrees Celsius. After nuclei staining with Hoechst 33342 (Life Technologies, catalog # H3570) the plates were imaged with InCell 2000 (GE Healthcare Bio-Sciences). FoxO3a inhibition activity is calculated as the ratio of nuclear to cytosolic GFP intensity in percent. AKT activation is measured as the total cellular intensity of Phospho-AKT antibody staining in percent. DMSO control is set as 0% activity.
# FoxO3a = FoxO3a inhibition: GFP-FoxO3a nuclear to cytoplasmic translocation reporter assay; assay type: cell-based; conditions: Homo sapiens, U2OS, 0.5 h, U2OS GFP-FoxO3a H212R cells, serum starved overnight, compound 30 minutes; ratio of nuclear to cytosolic GFP intensity; DMSO control 0%; read-out: FoxO AC50
# Method: as §1, §2, §3
smiles,measurement,setting,value
"Cc1cc(C(N)=O)nn1-c1ccc2c(ccn2Cc2ccc([C@@H]3C[C@@H]4CN(S(C)(=O)=O)C[C@@H]4C3)cc2)c1 [Example 41, 5-methyl-1-(1-(4-((3aR,5r,6aS)-2-(methylsulfonyl)octahydrocyclopenta[c]pyrrol-5-yl)benzyl)-1H-indol-5-yl)-1H-pyrazole-3-carboxamide]",AC50,AKT,304 nM
same,AC50,FoxO3a,113 nM
"Cc1cc(C(N)=O)nn1-c1ccc2c(ccn2Cc2ccc(-c3ccc4cn(C)nc4c3)cc2)c1 [Example 1-10, 5-methyl-1-(1-(4-(2-methyl-2H-indazol-6-yl)benzyl)-1H-indol-5-yl)-1H-pyrazole-3-carboxamide]",AC50,AKT,234 nM
same,AC50,FoxO3a,72 nM
"Cc1cc(C(N)=O)nn1-c1ccc2c(ccn2Cc2ccc(-c3ccc(N)cc3)cc2)c1 [Example 1-26, 1-(1-((4′-amino-[1,1′-biphenyl]-4-yl)methyl)-1H-indol-5-yl)-5-methyl-1H-pyrazole-3-carboxamide]",AC50,AKT,> 10000 nM
same,AC50,FoxO3a,129 nM
"Cc1cc(C(N)=O)nn1-c1ccc2c(ccn2Cc2ccc(C3=CCN(C)C(C)(C)C3)cc2)c1 [Example 15-1, 5-methyl-1-(1-(4-(1,2,2-trimethyl-1,2,3,6-tetrahydropyridin-4-yl)benzyl)-1H-indol-5-yl)-1H-pyrazole-3-carboxamide]",AC50,AKT,391 nM
same,AC50,FoxO3a,242 nM
"Cc1cc(C(N)=O)nn1-c1ccc2c(ccn2Cc2ccc(C3=CCN(C)CC3C)cc2)c1 (stereo not drawn) [Example 17-1, 1-(1-(4-(1,3-dimethyl-1,2,3,6-tetrahydropyridin-4-yl)benzyl)-1H-indol-5-yl)-5-methyl-1H-pyrazole-3-carboxamide]",AC50,AKT,460 nM
same,AC50,FoxO3a,102 nM
"Cc1cc(C(N)=O)nn1-c1ccc2c(ccn2Cc2ccc(NC3CCN(C)C3)cc2)c1 (single isomer, unassigned) [Example 37-1, 5-Methyl-1-(1-(4-((1-methylpyrrolidin-3-yl)amino)benzyl)-1H-indol-5-yl)-1H-pyrazole-3-carboxamide]",AC50,AKT,4790 nM
same,AC50,FoxO3a,724 nM
"Cc1cc(C(N)=O)nn1-c1ccc2c(ccn2Cc2ccc(-c3cccc(C(=O)N4CCN(C)CC4)c3)cc2)c1 [Example 1-12, 5-methyl-1-(1-((3′-(4-methylpiperazine-1-carbonyl)-[1,1′-biphenyl]-4-yl)methyl)-1H-indol-5-yl)-1H-pyrazole-3-carboxamide]",AC50,AKT,346 nM
same,AC50,FoxO3a,124 nM
"Cc1cc(C(N)=O)nn1-c1ccc2c(ccn2Cc2ccc(-c3ccncc3)cc2)c1 [Example 1-2, 5-methyl-1-(1-(4-(pyridin-4-yl)benzyl)-1H-indol-5-yl)-1H-pyrazole-3-carboxamide]",AC50,FoxO3a,102 nM
"Cc1cc(C(N)=O)nn1-c1ccc2c(ccn2Cc2ccc(C3CCN(CCCN)CC3)cc2)c1 [Example 8, 1-(1-(4-(1-(3-aminopropyl)piperidin-4-yl)benzyl)-1H-indol-5-yl)-5-methyl-1H-pyrazole-3-carboxamide]",AC50,FoxO3a,466 nM
"CC(=O)NCCCN1CCC(c2ccc(Cn3ccc4cc(-n5nc(C(N)=O)cc5C)ccc43)cc2)CC1 [Example 9, 1-(1-(4-(1-(3-acetamidopropyl)piperidin-4-yl)benzyl)-1H-indol-5-yl)-5-methyl-1H-pyrazole-3-carboxamide]",AC50,FoxO3a,301 nM
"Cc1cc(C(N)=O)nn1-c1ccc2c(c1)c(CCCO)cn2Cc1ccc([C@@H]2C[C@@H]3CN(C)C[C@@H]3C2)cc1 [Example 38, 1-(3-(3-hydroxypropyl)-1-(4-((3aR,5r,6aS)-2-methyloctahydrocyclopenta[c]pyrrol-5-yl)benzyl)-1H-indol-5-yl)-5-methyl-1H-pyrazole-3-carboxamide]",AC50,FoxO3a,81 nM

# — patent US10654828B2 (NOVARTIS AG, priority 2017, dated 2020)
